Measurements reported in patent US4500511A, “Antiinflammatory and analgesic gel” (Grelan Pharmaceutical Co., Ltd., priority 1982, dated 1985).

Test system: vascular permeability
Test: Suppression of increased vascular permeability (λ-carrageenin, dye leakage) in guinea pigs
Assay type: in vivo, Hartley strain albino guinea pigs
Conditions: oral, 2.0 mg/kg; for Suppression rate: *p < 0.05
Protocol: The hair on the back of Hartley strain albino guinea pigs (male; weighing 235 to 270 g; in groups of 7 animals) was removed with an electric hair clipper and an electric razor, circles, 2.5 cm in diameter (4.91 cm^2 in area), were drawn symmetrically on both sides of the medium line, and 50 mg of each test external preparation was applied to the area of each circle. Three hours after application, 0.1 ml of 0.1% λ-carrageeninsolution was injected intradermally into the center of each circle, followed by injection of 0.5 ml/100 g of body weight of 0.5% Pontamine sky blue solution into the vein of the penis. Three hours after injection, each animal was sacrificed by decapitation, exsanguinated and flayed, and the area of dye leakage (major axis x minor axis) on the inner side of the skin was measured with slide calipers.
The external preparations used were preparations (A), (D), (E) and (H) containing of 0.1%, 0.25%, 0.5% and 1% of clidanac, respectively, and preparations (f), (g), (h) and (i) containing 0.1%, 0.25%, 0.5% and 1% of indomethacin, respectively. In the control group, any preparation was not administered but massage alone was performed.
For further comparison, oral preparations respectively containing clidanac and indomethacin were prepared by the procedure of Reference Example 4 and orally administered in a clidanac dose of 2 mg/kg and in an indomethacin dose of 2 mg/kg, respectively, and the animals were treated in the same manner as mentioned above.
The rate of suppression was calculated using the follwoing formula: [formula] where C is the area of dye leakage for the control group and T is the area of dye leakage for the drug-treated group.

SMILES	Area of dye leakage [mm^2]	Suppression rate [%]
O=C(O)C1CCc2cc(C3CCCCC3)c(Cl)cc21 (stereo not shown) [Clidanac, 6-chloro-5-cyclohexylindane-1-carboxylic acid]	193.8 ± 12.1	17.4
COc1ccc2c(c1)c(CC(=O)O)c(C)n2C(=O)c1ccc(Cl)cc1 [Indomethacin]	195.7 ± 13.6	16.6
